# Test results taken from PMC6934455, “Molecular Dynamics model of peptide-protein conjugation: case study of covalent complex between Sos1 peptide and N-terminal SH3 domain from Grb2” (Scientific Reports, 2019).
# Target: T1, C32S Grb2 N-SH3 (Homo sapiens, UniProt P62993, C32S)
# T1 construct: encoding residues 2–59 of human Grb2; His6 (N); host or cells: E. coli Rosetta DE3 (Novagen)
# Test: 1HN,15N-HSQC NMR titration, noncovalent binding
# Text: For quantitative analysis, we have selected a group of 8 well-resolved peaks showing substantial titration effects. The two-dimensional HSQC titration data for these peaks have been fitted using the program TITAN[39] on per-residue basis, as well as collectively (illustrated in Fig. 1D; for complete summary see Fig. S1).
# pET-28 vectors for Grb2 N-SH3 (WT and C32S) encoding residues 2–59 of human Grb2 have been purchased from GenScript. The protein additionally containing N-terminal His6-tag was expressed in Rosetta DE3 cells (Novagen) using minimal M9 media. ^15N-NH4Cl and ^13C-glucose supplements have been used for isotope labeling. Protein expression was induced when OD600 reached 0.8. After 16 hours of incubation at 37 °C, cells were harvested, suspended in the standard lysis buffer (containing 2 mM of DTT) and then homogenized by SPEX SamplePrep 6870 Freezer/Mill followed by three rounds of sonication on ice. The sample was purified using Ni-affinity and size-exclusion chromatography (columns GE HisTrap HP and GE Sephacryl S-200 HR).
# All measurements were conducted at 25 °C using 500 MHz Bruker Avance III spectrometer equipped with TBI room temperature probe. […] The buffer additionally contained 150 mM NaCl.
# The peptide concentration was incremented from 0 to 160 μM in a step of 20 μM and then brought to 240 μM. […] The results were analyzed using the program TITAN[39].
# T1 sequence (P62993 2-59 C32S): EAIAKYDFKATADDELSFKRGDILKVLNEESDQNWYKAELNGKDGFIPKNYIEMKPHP
compound,measurement,value
CC(C)[C@H](N)C(=O)N1CCC[C@H]1C(=O)N1CCC[C@H]1C(=O)N1CCC[C@H]1C(=O)N[C@H](C(=O)N1CCC[C@H]1C(=O)N1CCC[C@H]1C(=O)N[C@@H](CCCNC(=N)N)C(=O)N[C@@H](CCCNC(=N)N)C(=O)N[C@@H](CCCNC(=N)N)C(=O)N[C@@H](CCCCNC(=O)CCl)C(=O)O)C(C)C [Sos1-X′],Kd,4.9 µM
